{
  "source": "patent US12409187B2",
  "about": "“PH regulating hydrogels that neutralize cancer cell environment acidosis and increase chemotherapy efficacy” (Brown University, priority 2021, dated 2025)",
  "type_in_all_cases": "cell-based, human",
  "key": {"[1]": {"tested_on": "MDA-MB-231 breast cancer cells", "experiment": "pH-dependent doxorubicin efficacy on cell proliferation", "details": "0.25 μM doxorubicin, 5-day treatment"}, "[2]": {"tested_on": "MDA-MB-231 breast cancer cell line", "experiment": "Cell proliferation assay (image confluency, manual cell count)", "details": "1 μM doxorubicin", "protocol": "Cell viability. Incubated MDA-MB-231 cells were passaged from a confluent T-flask into a 12-well culture plate, and the treatment hydrogels were added. For the viability study, the effect of modified PEG hydrogels bicarbonate concentrations of 200, 400, 600, and 800 mM was analyzed along with the control group with no treatment (bicarbonate), and a vehicle control of PEG with no bicarbonate. The cells were imaged every twenty-four hours under Nikon TS 100 inverted light microscope attached with Excelis HD camera and processed using an ImageJ image processing macro (performed by Gavin Mays) to estimate cell confluency from the imaged area coverage. At the end of day 5, the number of live and dead cells were estimated by Trypan staining and cell counting using a hemocytometer. Percentage viability was calculated from the number of live cells as a fraction of total cells.\nCell proliferation assay. MDA-MB-231 breast cancer cell line. Cells given pH, hydrogel, sodium bicarbonate, and doxorubicin treatment. At twenty-four hours, cell confluency is observed and recorded via image processing. At Day 6, cell counting was performed using a hemocytometer. All assays increased in confluency. […] Assays without hydrogels consistent with confluency analysis. Assays with any hydrogel have low manual cell counts."}, "MDA-MB-231 cells": {"tested_on": "MDA-MB-231 cells", "experiment": "MTT assay (metabolic activity), Example 2", "details": "1 μM doxorubicin", "protocol": "MTT assay. Measures metabolic activity. Cells reduce membrane permeable salt MTT (yellow) to formazan crystals (purple). Incubate for three days with treatment. Incubate for four hours with MTT. Add solubilization solution. Incubate for twelve hours. Measure absorbance of every well at OD570 nm-OD650 nm. See Riss et al., The Assay Guidance Manual (Eli Lilly & Company and the National Center for Advancing Translational Sciences. Bethesda, MD, USA, 2016). Hydrogels added to 7.4 pH with no drug had decreased metabolic activity. Hydrogels added to 6.5 pH with drug had decreased metabolic activity. Base-releasing hydrogel reduced cell proliferation, migration, and metabolic activity at an alkaline pH. Base-releasing hydrogel improved doxorubicin efficacy against cell proliferation, migration, and metabolic activity at an alkaline pH. Neutral-pH-adapted cells prefer neutral pH.\nThe metabolism of cancer cells can be measured by the activity of the mitochondrial reductase enzyme. […] The metabolic activity of the cells in culture can be measured by this conversion of MTT to formazan crystals. The absorbance can then be recorded at OD570 nm and OD650 nm to quantify the formazan produced by the cells through the mitochondrial reductase conversion from MTT. […] The absorbance is measured spectrophotometrically via a plate reader."}},
  "data": [
    {"smiles": "COc1cccc2c1C(=O)c1c(O)c3c(c(O)c1C2=O)C[C@@](O)(C(=O)CO)C[C@@H]3O[C@H]1C[C@H](N)[C@H](O)[C@H](C)O1", "note": "[doxorubicin]", "values": [
      {"measurement": "efficacy at preventing cell proliferation", "setting": "[1]; pH 6.5", "result": 40, "unit": "%"},
      {"measurement": "effectiveness at preventing cell proliferation", "setting": "[1]; pH 7.4", "result": "approximately 95%"},
      {"measurement": "change of cell proliferation over the six-day trial period", "setting": "[2]", "result": "decrease"},
      {"measurement": "metabolic activity versus assays without doxorubicin", "setting": "MDA-MB-231 cells", "result": "statistically significantly less metabolic activity"}
    ]}
  ]
}
